Measurements from ChEMBL document CHEMBL2021815, “Metabolism of 4-Aminopiperidine Drugs by Cytochrome P450s: Molecular and Quantum Mechanical Insights into Drug Design” (ACS Med Chem Lett, 2011).

Assays:
Assay type in all cases: ADME, Microsome
CYP2D6 = CYP2D6 (Homo sapiens, UniProt P10635); assay: Half life in human liver microsomes assessed as CYP2D6-mediated parent compound depletion at 1 uM
CYP3A4 = CYP3A4 (Homo sapiens, UniProt P08684); assay: Half life in human liver microsomes assessed as CYP3A4-mediated parent compound depletion at 1 uM
CYP1A2 = target: T1, CYP1A2 (Homo sapiens, UniProt P05177); assay: Half life in human liver microsomes assessed as CYP1A2-mediated parent compound depletion at 1 uM
T1 sequence (P05177 whole entry): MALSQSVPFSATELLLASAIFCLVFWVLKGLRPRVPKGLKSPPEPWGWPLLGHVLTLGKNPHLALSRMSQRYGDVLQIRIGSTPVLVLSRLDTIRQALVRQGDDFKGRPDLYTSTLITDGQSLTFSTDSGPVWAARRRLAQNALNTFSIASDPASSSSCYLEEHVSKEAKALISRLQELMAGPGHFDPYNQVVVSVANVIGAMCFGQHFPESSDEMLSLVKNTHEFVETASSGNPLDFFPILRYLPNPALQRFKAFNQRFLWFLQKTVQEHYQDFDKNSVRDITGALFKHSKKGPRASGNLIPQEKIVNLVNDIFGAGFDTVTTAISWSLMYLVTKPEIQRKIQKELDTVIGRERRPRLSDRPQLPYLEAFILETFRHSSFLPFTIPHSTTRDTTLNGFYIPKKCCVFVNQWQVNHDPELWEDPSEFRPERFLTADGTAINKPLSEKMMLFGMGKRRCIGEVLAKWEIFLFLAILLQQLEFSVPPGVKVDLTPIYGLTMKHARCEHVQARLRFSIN

CYP2C19 = CYP2C19 (Homo sapiens, UniProt P33261); assay: Half life in human liver microsomes assessed as CYP2C19-mediated parent compound depletion at 1 uM
Liver microsomes = assay: Clearance in human liver microsomes at 1 uM
CYP2C9 = CYP2C9 (Homo sapiens, UniProt P11712); assay: Half life in human liver microsomes assessed as CYP2C9-mediated parent compound depletion at 1 uM
CYP2C8 = target: T2, CYP2C8 (Homo sapiens, UniProt P10632); assay: Half life in human liver microsomes assessed as CYP2C8-mediated parent compound depletion at 1 uM
T2 sequence (P10632 whole entry): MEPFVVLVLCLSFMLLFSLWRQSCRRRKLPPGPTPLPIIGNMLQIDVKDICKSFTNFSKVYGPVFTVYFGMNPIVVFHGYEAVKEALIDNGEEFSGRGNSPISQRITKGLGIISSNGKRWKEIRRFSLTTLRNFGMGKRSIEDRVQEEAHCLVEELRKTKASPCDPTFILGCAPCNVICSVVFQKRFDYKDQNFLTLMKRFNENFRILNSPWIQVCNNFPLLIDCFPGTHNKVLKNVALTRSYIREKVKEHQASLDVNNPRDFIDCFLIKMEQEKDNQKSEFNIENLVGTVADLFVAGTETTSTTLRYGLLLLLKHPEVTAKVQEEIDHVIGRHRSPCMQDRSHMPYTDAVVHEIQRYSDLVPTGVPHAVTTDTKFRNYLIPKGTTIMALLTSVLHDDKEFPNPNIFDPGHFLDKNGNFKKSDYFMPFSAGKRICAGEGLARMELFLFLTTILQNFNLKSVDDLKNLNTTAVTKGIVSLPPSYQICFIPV

CYP2B6 = target: T3, CYP2B6 (Homo sapiens, UniProt P20813); assay: Half life in human liver microsomes assessed as CYP2B6-mediated parent compound depletion at 1 uM
T3 sequence (P20813 whole entry): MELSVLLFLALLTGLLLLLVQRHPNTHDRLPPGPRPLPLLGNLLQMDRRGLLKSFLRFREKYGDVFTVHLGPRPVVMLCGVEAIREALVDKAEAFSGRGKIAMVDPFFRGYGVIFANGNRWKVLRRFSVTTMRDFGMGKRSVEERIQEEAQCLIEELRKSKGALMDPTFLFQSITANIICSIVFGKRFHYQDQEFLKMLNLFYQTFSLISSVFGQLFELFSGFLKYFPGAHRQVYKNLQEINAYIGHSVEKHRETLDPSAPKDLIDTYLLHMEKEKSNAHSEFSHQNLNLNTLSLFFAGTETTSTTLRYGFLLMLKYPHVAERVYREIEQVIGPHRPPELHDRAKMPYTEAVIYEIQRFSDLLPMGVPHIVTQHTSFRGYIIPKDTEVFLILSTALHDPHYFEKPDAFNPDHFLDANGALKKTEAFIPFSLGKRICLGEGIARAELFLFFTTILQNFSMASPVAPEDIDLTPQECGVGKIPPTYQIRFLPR

Sequence of CYP2C9 (P11712 whole entry): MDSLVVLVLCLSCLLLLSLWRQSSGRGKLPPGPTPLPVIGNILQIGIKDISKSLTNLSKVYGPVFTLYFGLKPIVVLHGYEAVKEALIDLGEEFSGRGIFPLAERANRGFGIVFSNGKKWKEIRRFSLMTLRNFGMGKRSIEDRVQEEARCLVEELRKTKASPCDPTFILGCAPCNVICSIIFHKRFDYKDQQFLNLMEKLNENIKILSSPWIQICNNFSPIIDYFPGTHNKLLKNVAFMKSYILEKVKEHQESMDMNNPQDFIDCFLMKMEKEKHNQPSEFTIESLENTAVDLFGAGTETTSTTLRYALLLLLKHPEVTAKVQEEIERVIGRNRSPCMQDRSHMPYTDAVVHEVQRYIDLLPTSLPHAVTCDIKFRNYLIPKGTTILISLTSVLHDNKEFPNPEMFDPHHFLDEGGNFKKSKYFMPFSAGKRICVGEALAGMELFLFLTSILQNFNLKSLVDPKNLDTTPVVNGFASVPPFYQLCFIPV
Sequence of CYP2C19 (P33261 whole entry): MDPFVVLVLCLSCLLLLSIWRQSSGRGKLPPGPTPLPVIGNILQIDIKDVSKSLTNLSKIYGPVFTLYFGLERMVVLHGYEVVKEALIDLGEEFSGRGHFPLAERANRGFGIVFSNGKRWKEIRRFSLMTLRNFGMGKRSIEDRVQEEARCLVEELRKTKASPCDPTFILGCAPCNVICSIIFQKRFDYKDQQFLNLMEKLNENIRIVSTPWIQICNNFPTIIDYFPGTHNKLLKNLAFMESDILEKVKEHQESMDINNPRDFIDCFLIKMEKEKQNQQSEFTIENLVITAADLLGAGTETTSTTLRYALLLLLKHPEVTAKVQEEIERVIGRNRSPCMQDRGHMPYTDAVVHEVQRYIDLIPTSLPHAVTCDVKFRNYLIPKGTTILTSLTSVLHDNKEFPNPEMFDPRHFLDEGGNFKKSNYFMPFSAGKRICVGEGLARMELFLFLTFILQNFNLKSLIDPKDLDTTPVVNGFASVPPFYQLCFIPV
Sequence of CYP3A4 (P08684 whole entry): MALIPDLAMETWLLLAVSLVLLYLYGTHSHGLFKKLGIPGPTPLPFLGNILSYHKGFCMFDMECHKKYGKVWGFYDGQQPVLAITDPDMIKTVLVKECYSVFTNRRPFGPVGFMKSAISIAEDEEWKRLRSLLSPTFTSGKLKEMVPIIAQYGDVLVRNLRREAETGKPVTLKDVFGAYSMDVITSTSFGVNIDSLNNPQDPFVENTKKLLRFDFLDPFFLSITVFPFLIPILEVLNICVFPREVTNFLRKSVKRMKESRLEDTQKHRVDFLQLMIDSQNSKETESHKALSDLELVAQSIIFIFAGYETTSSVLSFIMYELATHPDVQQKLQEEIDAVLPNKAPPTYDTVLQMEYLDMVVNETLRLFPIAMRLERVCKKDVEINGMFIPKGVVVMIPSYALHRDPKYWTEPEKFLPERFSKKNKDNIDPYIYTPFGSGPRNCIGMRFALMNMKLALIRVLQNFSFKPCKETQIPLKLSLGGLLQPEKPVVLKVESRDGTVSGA
Sequence of CYP2D6 (P10635 whole entry): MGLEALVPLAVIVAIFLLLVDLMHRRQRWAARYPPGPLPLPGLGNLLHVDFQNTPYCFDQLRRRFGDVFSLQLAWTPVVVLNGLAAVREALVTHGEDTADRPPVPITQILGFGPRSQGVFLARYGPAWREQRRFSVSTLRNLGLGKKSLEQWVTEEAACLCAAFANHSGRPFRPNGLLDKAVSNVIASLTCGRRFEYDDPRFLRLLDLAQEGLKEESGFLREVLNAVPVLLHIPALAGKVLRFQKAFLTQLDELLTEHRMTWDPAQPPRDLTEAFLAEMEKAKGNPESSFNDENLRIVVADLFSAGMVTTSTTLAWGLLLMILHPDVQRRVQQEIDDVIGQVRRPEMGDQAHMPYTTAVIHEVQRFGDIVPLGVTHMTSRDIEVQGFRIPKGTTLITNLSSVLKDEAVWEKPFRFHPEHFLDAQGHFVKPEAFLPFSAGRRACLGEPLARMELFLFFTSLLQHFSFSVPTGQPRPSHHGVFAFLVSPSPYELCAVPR

| SMILES | half-life at 1 µM (CYP2D6) [h] | half-life at 1 µM (CYP3A4) [h] | half-life at 1 µM (CYP1A2) [h] | half-life at 1 µM (CYP2C19) [h] | Intrinsic clearance in liver microsomes (Liver microsomes) [µL/min/mg] | half-life at 1 µM (CYP2C9) [h] | half-life at 1 µM (CYP2C8) [h] | half-life at 1 µM (CYP2B6) [h] | CLH (Liver microsomes) [µL/min/mg] |
| --- | --- | --- | --- | --- | --- | --- | --- | --- | --- |
| COc1ccc(CCN2CCC(Nc3nc4ccccc4n3Cc3ccc(F)cc3)CC2)cc1 [ASTEMIZOLE] | 0.0667 | 0.025 | > 1 | > 1 | 136 | > 1 | > 1 | > 1 |  |
| O=C(CCCN1CCC(n2c(O)nc3ccccc32)CC1)c1ccc(F)cc1 [BENPERIDOL] | 0.173 | 0.055 | > 1 | > 1 |  | > 1 | 0.73 | > 1 | 42 |
| COc1cc(N)c(Cl)cc1C(=O)NC1CCN(CCCOc2ccc(F)cc2)CC1OC (stereo unspecified) [CISAPRIDE] | > 1 |  | > 1 | > 1 | 120.7 | > 1 | > 1 | > 1 |  |
| COc1cc(N)c(Cl)cc1C(=O)NC1CCN(Cc2ccccc2)CC1 [CLEBOPRIDE] | > 1 | < 0.0833 | > 1 | > 1 | 50.4 | > 1 | > 1 | > 1 |  |
| O=c1[nH]c2ccccc2n1CCCN1CCC(n2c(=O)[nH]c3cc(Cl)ccc32)CC1 [DOMPERIDONE] |  |  |  |  |  |  |  |  | 108.6 |
| O=C(NC1CCN(CCc2c[nH]c3ccccc23)CC1)c1ccccc1 [INDORAMIN] | < 0.0833 | 0.267 | > 1 | > 1 | 46.4 | > 1 | > 1 | > 1 |  |
| O=c1[nH]c2ccccc2n1C1CCN(CCCC(c2ccc(F)cc2)c2ccc(F)cc2)CC1 [PIMOZIDE] | 0.0533 | 0.045 | > 1 | > 1 |  | > 1 | > 1 | > 1 | 57 |
| CN(c1nc2ccccc2s1)C1CCN(CC(O)COc2ccc(F)cc2)CC1 (stereo unspecified) [SABELUZOLE] | 0.025 | < 0.0833 | > 1 | > 1 | 37 | > 1 | > 1 | > 1 |  |
